Paper PMC3480357, “Fragment-Hopping-Based Discovery of a Novel Chemical Series of Proto-Oncogene PIM-1 Kinase Inhibitors” (PLoS ONE, 2012)
Where two headings read alike, the source gives them in different places. One block for each compound: values may come before it.

Key:
FAK [1] = molecular target: T1, FAK (Homo sapiens, UniProt Q05397); parameters: method as in PMID 21051136; conditions: 10 µM; average of two data points; cited from earlier work
PIM-2 [2] = molecular target: T2, PIM-2 (Homo sapiens, UniProt Q9P1W9); parameters: method as in PMID 21051136; conditions: cited from earlier work
T2 sequence (Q9P1W9 whole entry): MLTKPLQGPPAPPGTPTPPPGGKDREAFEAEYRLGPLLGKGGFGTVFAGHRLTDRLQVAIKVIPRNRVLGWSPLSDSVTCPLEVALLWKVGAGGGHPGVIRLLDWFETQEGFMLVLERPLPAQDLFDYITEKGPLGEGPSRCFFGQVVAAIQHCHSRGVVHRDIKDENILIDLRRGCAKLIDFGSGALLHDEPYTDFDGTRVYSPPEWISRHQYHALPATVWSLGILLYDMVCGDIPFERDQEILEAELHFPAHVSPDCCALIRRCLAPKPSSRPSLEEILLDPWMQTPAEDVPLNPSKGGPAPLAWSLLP

MST1 [3] = molecular target: T3, MST1 (Homo sapiens, UniProt Q13043); parameters: method as in PMID 21051136; conditions: 10 µM; average of two data points; cited from earlier work
T3 sequence (Q13043 1-487): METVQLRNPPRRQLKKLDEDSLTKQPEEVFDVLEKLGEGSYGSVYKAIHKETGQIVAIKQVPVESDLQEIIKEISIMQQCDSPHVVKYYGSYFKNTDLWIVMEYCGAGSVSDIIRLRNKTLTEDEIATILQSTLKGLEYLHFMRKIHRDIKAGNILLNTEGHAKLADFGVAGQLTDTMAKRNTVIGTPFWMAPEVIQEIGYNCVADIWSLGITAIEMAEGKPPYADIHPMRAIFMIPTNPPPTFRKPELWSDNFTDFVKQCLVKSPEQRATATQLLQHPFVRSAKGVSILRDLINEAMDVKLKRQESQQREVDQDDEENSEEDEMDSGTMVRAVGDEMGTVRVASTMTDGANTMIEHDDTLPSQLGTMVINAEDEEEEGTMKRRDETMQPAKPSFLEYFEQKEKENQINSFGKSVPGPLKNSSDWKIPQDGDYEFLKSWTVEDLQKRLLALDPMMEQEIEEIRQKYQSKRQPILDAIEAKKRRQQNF

JAK2 [4] = molecular target: T4, JAK2 (Homo sapiens, UniProt O60674); parameters: method as in PMID 21051136; conditions: 10 µM; average of two data points; cited from earlier work
IGF1-R [5] = molecular target: T5, IGF1-R (Homo sapiens, UniProt P08069); parameters: method as in PMID 21051136; conditions: 10 µM; average of two data points; cited from earlier work
INS-R = INS-R (Homo sapiens, UniProt P06213); parameters: method as in PMID 21051136; conditions: 10 µM; average of two data points; cited from earlier work
[6] = Metabolic stability in liver microsomes (Mouse); type: in vitro ADME; conditions: 1 µM, 15 minutes
[7] = Metabolic stability in liver microsomes (Rat); type: in vitro ADME; conditions: 1 µM, 15 minutes
PDGFR-α = PDGFR-α (Homo sapiens, UniProt P16234); assay: ProQinase kinase panel, % inhibition at fixed concentration; type: biochemical
Method: (§1) Once compounds 7 and 8 were synthesized, a pairwise comparison was performed to strictly evaluate the real impact of this fragment-hopping where imidazopyridazine is replaced by triazolopyridine.

CK1-α1 = CK1-α1 (Homo sapiens, UniProt P48729); assay: as above; type: biochemical; conditions: for inhibition at 10 µM: inhibitor at 10 µM
CK1-α1, sequence (P48729 whole entry): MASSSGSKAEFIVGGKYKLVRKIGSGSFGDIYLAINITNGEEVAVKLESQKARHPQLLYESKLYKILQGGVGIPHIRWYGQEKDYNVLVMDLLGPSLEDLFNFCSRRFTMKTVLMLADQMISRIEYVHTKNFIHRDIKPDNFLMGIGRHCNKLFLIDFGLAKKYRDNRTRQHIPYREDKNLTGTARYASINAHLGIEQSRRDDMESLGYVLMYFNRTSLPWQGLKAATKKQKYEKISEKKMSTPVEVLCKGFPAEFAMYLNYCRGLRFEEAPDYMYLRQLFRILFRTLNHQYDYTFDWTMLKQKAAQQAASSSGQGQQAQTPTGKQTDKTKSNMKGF
Method: as §1

B-RAF-V600E = B-RAF-V600E (Homo sapiens, UniProt P15056, V600E); assay: as above; type: biochemical
B-RAF-V600E, sequence (P15056 whole entry V600E): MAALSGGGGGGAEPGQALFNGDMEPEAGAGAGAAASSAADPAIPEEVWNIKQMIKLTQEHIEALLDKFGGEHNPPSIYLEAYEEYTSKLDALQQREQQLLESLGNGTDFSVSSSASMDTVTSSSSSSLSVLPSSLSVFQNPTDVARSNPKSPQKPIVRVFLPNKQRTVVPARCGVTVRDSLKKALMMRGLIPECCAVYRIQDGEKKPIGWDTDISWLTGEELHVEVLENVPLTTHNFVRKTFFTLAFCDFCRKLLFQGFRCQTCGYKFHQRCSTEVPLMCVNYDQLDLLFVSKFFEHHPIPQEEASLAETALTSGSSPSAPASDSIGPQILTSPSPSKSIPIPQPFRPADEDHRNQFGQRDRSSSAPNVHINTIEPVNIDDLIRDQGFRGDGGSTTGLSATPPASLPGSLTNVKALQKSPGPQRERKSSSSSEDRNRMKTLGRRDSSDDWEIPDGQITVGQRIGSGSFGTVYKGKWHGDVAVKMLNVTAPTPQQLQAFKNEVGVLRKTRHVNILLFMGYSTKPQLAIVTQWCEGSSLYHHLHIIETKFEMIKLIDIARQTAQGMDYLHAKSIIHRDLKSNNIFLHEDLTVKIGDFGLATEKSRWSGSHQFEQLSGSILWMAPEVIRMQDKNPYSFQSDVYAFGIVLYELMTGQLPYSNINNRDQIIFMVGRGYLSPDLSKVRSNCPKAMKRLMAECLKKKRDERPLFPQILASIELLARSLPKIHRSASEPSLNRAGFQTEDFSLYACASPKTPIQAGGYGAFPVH
Method: as §1

IGF1-R [8] = molecular target: T5, IGF1-R; assay: as above; type: biochemical; conditions: read-out: IGF1-R percentage of inhibition
Method: as §1

JAK2 [9] = molecular target: T4, JAK2; assay: as above; type: biochemical; conditions: average of two data points, read-out: JAK2 percentage of inhibition; for inhibition at 10 µM: inhibitor at 10 µM
Method: as §1

MET = MET (Homo sapiens, UniProt P08581); assay: as above; type: biochemical; conditions: read-out: MET percentage of inhibition
MET, sequence (P08581 25-1390): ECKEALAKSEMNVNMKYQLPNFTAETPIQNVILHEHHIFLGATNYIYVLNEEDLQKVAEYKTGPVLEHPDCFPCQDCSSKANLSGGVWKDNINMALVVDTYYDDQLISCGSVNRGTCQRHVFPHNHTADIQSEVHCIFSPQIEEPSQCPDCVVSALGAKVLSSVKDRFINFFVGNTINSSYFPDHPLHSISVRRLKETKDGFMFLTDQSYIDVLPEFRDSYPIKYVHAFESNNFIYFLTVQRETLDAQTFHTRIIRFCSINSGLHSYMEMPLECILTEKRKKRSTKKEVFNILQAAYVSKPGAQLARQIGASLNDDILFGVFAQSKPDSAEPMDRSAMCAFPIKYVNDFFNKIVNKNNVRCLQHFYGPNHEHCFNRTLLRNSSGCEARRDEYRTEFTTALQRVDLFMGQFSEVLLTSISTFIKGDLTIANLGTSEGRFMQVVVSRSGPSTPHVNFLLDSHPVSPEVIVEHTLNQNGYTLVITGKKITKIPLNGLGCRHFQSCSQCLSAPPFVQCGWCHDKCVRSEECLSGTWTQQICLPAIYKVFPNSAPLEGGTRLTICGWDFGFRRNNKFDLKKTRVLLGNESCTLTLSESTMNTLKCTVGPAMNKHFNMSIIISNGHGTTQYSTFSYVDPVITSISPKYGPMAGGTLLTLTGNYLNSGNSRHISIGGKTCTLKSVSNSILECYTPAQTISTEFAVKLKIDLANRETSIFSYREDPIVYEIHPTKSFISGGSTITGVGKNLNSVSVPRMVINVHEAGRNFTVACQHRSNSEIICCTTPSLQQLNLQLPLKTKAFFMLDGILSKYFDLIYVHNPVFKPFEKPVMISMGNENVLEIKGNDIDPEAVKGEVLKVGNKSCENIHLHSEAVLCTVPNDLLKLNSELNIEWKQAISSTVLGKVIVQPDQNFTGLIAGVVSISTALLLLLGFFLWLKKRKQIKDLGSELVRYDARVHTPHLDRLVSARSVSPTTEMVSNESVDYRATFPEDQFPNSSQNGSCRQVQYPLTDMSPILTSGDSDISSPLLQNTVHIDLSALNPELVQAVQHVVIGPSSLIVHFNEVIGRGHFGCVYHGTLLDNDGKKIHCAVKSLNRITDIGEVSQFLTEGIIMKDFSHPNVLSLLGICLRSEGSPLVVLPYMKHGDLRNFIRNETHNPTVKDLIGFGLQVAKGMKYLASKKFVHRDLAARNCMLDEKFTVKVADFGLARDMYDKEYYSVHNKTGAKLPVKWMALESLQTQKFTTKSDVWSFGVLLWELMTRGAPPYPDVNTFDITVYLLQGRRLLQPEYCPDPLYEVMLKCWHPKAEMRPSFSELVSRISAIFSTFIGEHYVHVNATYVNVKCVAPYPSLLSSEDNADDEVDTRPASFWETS
Method: as §1

EGF-R = EGF-R (Homo sapiens, UniProt P00533); assay: as above; type: biochemical
EGF-R, sequence (P00533 25-1210, species assumed): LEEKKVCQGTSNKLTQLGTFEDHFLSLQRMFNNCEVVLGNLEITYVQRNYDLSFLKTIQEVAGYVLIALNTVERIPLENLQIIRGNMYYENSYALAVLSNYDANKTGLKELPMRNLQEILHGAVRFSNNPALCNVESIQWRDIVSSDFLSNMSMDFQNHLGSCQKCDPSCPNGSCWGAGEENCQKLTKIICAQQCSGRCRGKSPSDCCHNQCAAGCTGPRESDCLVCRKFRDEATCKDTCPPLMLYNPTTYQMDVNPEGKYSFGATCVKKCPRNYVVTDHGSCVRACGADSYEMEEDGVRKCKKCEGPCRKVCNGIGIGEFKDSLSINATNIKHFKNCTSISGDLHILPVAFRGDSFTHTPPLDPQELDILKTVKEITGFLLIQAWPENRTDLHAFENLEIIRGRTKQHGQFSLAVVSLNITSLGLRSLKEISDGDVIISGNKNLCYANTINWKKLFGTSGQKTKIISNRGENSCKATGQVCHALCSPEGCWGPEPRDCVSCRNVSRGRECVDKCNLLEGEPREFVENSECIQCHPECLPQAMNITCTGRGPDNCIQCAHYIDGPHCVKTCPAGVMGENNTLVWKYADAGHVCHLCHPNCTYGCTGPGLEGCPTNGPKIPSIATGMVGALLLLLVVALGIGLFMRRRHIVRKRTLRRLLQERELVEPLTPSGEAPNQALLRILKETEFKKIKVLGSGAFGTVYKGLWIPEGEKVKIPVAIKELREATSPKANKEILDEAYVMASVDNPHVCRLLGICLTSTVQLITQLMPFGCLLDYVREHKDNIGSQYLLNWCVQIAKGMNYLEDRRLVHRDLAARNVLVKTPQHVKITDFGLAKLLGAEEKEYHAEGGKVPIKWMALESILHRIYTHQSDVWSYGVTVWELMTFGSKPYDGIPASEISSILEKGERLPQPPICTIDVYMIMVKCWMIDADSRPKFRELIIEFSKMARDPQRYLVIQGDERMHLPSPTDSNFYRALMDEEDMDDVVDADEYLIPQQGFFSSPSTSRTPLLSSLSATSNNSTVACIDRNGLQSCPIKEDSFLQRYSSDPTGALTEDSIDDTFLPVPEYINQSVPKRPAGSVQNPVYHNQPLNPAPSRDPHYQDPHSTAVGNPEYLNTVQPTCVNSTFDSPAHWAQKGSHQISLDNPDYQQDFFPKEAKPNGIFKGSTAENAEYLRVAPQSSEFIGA
Method: as §1

MST1 [10] = molecular target: T3, MST1; assay: as above; type: biochemical; conditions: for inhibition at 10 µM: inhibitor at 10 µM
Method: as §1

DYRK1A = DYRK1A (Homo sapiens, UniProt Q13627); assay: as above; type: biochemical; conditions: for inhibition at 10 µM: inhibitor at 10 µM
Method: as §1

AKT1 = AKT1 (Homo sapiens, UniProt P31749); assay: as above; type: biochemical; conditions: read-out: AKT1 percentage of inhibition
Method: as §1

PAMPA passive diffusion = type: in vitro ADME; conditions: LC/MS/MS after 4 hours of incubation at 2 µM; for Papp at 4 h, 2 µM: PAMPA, read-out: PAMPA Pe
Method: Therefore, to obtain more detailed information on this critical point, preliminary in vitro ADME profiling was performed for molecule 3. This profiling was mainly focused on hERG activity and on pharmacokinetics parameters, such as metabolic stability and PAMPA (an in vitro model for passive diffusion).

IKK-β = IKK-β (Homo sapiens, UniProt O14920); assay: ProQinase kinase panel, % inhibition at fixed concentration; type: biochemical; conditions: average of two data points, read-out: IKK-β percentage of inhibition
Method: (§2) Off-target selectivity profiling was also performed for compounds 3 and 8 against a panel of 20 kinases (Table 3). […] When taking the differences in screening concentrations into consideration, we can only make unequivocal conclusions about FLT3 (based on the IC50 determination). […] The slight improvement observed for the remainder of the screened targets was likely due to the difference in concentrations.

MEK1 = MEK1 (Homo sapiens, UniProt Q02750); assay: as above; type: biochemical; conditions: read-out: MEK1 percentage of inhibition
Method: as §2

[11] = Metabolic stability in liver microsomes (Human); type: in vitro ADME; conditions: for Met. Stab. (Human), percentage of the original compound that remained: 1 µM, liver microsomes, 15 minutes
PIM-2 [12] = molecular target: T2, PIM-2; assay: PIM-2 kinase ADP Hunter Plus assay; type: biochemical; conditions: 100 µM ATP
KIT = KIT (Homo sapiens, UniProt P10721); assay: ProQinase kinase panel, % inhibition at fixed concentration; type: biochemical
FAK [13] = molecular target: T1, FAK; assay: as above; type: biochemical
hERG = hERG (Homo sapiens, UniProt Q12809); assay: hERG radioligand binding assay using [3H]-astemizole; conditions: duplicate
[14] = average of two data points, read-out: CK1-α1 percentage of inhibition
[15] = average of two data points, read-out: MST1 percentage of inhibition
[16] = average of two data points, read-out: DYRK1A percentage of inhibition
[17] = compound 7 vs compound 1, 10 µM
[18] = inhibitor at 10 µM, average of two data points
[19] = compound 8 (5 µM) versus compound 3 (10 µM)
[20] = compound 8 (5 µM) vs compound 3 (10 µM)
[21] = inhibitor at 5 µM, average of two data points
[22] = hit definition % inhibition > 40, ligand at 5µM

T1 sequence (Q05397 whole entry, species assumed): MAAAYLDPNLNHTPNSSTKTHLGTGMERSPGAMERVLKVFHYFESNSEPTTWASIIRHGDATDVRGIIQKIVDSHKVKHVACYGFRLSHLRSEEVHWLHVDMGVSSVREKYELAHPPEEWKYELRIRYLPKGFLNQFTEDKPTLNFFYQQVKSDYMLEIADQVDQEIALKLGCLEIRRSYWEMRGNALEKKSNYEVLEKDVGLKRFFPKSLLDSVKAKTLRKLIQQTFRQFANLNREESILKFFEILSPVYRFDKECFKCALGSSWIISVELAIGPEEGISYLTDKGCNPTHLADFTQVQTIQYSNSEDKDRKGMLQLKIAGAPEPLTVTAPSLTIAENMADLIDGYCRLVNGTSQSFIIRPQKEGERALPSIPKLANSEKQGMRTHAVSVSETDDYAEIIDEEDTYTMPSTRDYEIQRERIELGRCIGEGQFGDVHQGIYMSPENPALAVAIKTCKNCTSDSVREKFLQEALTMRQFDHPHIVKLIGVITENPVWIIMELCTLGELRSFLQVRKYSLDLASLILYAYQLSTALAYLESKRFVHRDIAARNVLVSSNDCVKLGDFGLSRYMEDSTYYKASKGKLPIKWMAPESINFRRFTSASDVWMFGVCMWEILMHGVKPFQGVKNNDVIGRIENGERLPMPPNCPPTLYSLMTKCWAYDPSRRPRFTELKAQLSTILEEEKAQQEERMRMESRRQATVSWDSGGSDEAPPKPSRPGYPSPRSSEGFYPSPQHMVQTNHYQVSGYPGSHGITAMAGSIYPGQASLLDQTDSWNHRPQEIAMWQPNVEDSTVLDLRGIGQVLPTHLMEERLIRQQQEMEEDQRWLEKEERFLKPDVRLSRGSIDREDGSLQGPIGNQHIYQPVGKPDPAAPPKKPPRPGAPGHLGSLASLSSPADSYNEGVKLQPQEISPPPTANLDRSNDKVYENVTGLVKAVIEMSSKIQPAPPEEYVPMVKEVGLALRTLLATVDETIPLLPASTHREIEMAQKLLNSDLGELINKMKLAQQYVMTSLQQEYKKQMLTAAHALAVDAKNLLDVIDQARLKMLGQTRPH

Structure (SMILES): Oc1ccc(-c2cnc3ccc(NCc4ccc(F)cc4)nn23)cc1 [Compound 1]
- FAK percentage of inhibition (FAK [1]): 48%
- IC50 (PIM-2 [2]): 420 nM
- MST1 percentage of inhibition (MST1 [3]): 82%
- JAK2 percentage of inhibition (JAK2 [4]): 48%
- IGF1-R percentage of inhibition (IGF1-R [5]): 26%
- INS-R percentage of inhibition (INS-R): 67%

Structure (SMILES): CN1CCC(CNc2ccc3ncc(-c4cccc(OC(F)(F)F)c4)n3n2)CC1 [Compound 3, reference compound]
- Met. Stab. (Mouse), percentage of the original compound that remained [6]: 5%
- Met. Stab. (Rat), percentage of the original compound that remained [7]: 23%
- inhibition at 10 µM (PDGFR-α; read-out: PDGFR-α percentage of inhibition): 92%
- inhibition at 10 µM (CK1-α1; [14]): 0%
- inhibition at 10 µM (B-RAF-V600E; read-out: B-RAF-V600E percentage of inhibition): 41%
- inhibition at 10 µM (IGF1-R [8]): 53%
- inhibition at 10 µM (JAK2 [9]): 3%
- inhibition at 10 µM (MET): 12%
- inhibition at 10 µM (EGF-R; read-out: EGF-R percentage of inhibition): 32%
- inhibition at 10 µM (MST1 [10]; [15]): 60%
- inhibition at 10 µM (DYRK1A; [16]): 19%
- inhibition at 10 µM (AKT1): 0%
- Papp at 4 h, 2 µM (PAMPA passive diffusion): 0.0015 ×10⁻⁶ cm/s
- inhibition at 10 µM (IKK-β; inhibitor at 10 µM): 0%
- inhibition at 10 µM (MEK1): 11%
- Met. Stab. (Human), percentage of the original compound that remained [11]: 31%

- inhibition at 10 µM (PDGFR-α; inhibitor at 10 µM, average of two data points, read-out: PDGFR-α percentage of inhibition): 53%
- inhibition at 10 µM (CK1-α1; [14]): 8%
- inhibition at 10 µM (B-RAF-V600E; inhibitor at 10 µM, average of two data points, read-out: B-RAF-V600E percentage of inhibition): 8%
- inhibition at 10 µM (IGF1-R [8]; [18]): 9%
- inhibition at 10 µM (JAK2 [9]): 30%
- inhibition at 10 µM (MET; [18]): 21%
- inhibition at 10 µM (EGF-R; inhibitor at 10 µM, average of two data points, read-out: EGF-R percentage of inhibition): 8%
- inhibition at 10 µM (MST1 [10]; [15]): 29%
- DYRK1A reduction of percentage of inhibition (DYRK1A; compound 7 compared to compound 1, 10 µM): more than 25%
- inhibition at 10 µM (DYRK1A; [16]): > 70%
- inhibition at 10 µM (AKT1; [18]): 0%
- IC50 (PIM-2 [12]): 333 nM
- KIT experimental hit classification (KIT; hit definition % inhibition > 50, ligand at 10µM): hit
- inhibition at 10 µM (KIT; inhibitor at 10 µM, average of two data points, read-out: KIT percentage of inhibition): 51%
- inhibition at 10 µM (FAK [13]; inhibitor at 10 µM, average of two data points, read-out: FAK percentage of inhibition): 38%
Structure (SMILES): Oc1ccc(-n2nnc3ccc(NCc4ccc(F)cc4)nc32)cc1 [Compound 7, 4-[5-(4-Fluoro-benzylamino)-[1], [2], [3]triazolo[4,5-b]pyridin-3-yl]-phenol]
- PDGFR-α improvement in percentage of inhibition (PDGFR-α; [17]): b (This designation indicates that the improvement in percentage of inhibition was equal or greater than 25%)
- CK1-α1 improvement in percentage of inhibition (CK1-α1; [17]): b (This designation indicates that the improvement in percentage of inhibition was equal or greater than 25%)
- B-RAF-V600E improvement in percentage of inhibition (B-RAF-V600E; [17]): b (This designation indicates that the improvement in percentage of inhibition was equal or greater than 25%)
- EGF-R improvement in percentage of inhibition (EGF-R; [17]): b (This designation indicates that the improvement in percentage of inhibition was equal or greater than 25%)
- MST1 improvement in percentage of inhibition (MST1 [10]; [17]): c (This designation indicates that the improvement in percentage of inhibition was equal or greater than 50%)
- DYRK1A improvement in percentage of inhibition (DYRK1A; [17]): b (This designation indicates that the improvement in percentage of inhibition was equal or greater than 25%)
- KIT improvement in percentage of inhibition (KIT; [17]): b (This designation indicates that the improvement in percentage of inhibition was equal or greater than 25%)

- Met. Stab. (Mouse), percentage of the original compound that remained [6]: 27%
- Met. Stab. (Rat), percentage of the original compound that remained [7]: 35%
- PDGFR-α increment in percentage of inhibition (PDGFR-α; [19]): > 50%
- inhibition at 5 µM (PDGFR-α; inhibitor at 5 µM, average of two data points, read-out: PDGFR-α percentage of inhibition): 20%
- inhibition at 5 µM (CK1-α1; inhibitor at 5 µM, average of two data points, read-out: CK1-α1 percentage of inhibition): 8%
- inhibition at 5 µM (B-RAF-V600E; inhibitor at 5 µM, average of two data points, read-out: B-RAF-V600E percentage of inhibition): 10%
- inhibition at 5 µM (IGF1-R [8]; [21]): 25%
- inhibition at 5 µM (JAK2 [9]; inhibitor at 5 µM): 0%
- inhibition at 5 µM (MET; [21]): 6%
- inhibition at 5 µM (EGF-R; inhibitor at 5 µM, average of two data points, read-out: EGF-R percentage of inhibition): 18%
- inhibition at 5 µM (MST1 [10]; inhibitor at 5 µM, average of two data points, read-out: MST1 percentage of inhibition): 20%
- inhibition at 5 µM (DYRK1A; inhibitor at 5 µM, average of two data points, read-out: DYRK1A percentage of inhibition): 3%
- inhibition at 5 µM (AKT1; [21]): 0%
- IC50 (PIM-2 [12]): 4950 nM
- PAMPA Pe (PAMPA passive diffusion): 0.74 10^-6 cm/s
- Papp at 4 h, 2 µM (PAMPA passive diffusion): ~1 ×10⁻⁶ cm/s
- KIT increment in percentage of inhibition (KIT; [19]): > 50%
- KIT experimental hit classification (KIT; [22]): hit
- inhibition at 5 µM (KIT; inhibitor at 5 µM, average of two data points, read-out: KIT percentage of inhibition): 44%
- inhibition at 5 µM (IKK-β; inhibitor at 5 µM): 3%
- inhibition at 5 µM (MEK1; [21]): 33%
- Met. Stab. (Human), percentage of the original compound that remained [11]: 77%
- increase in metabolic stability in human liver microsomes ([11]; molecule 8 vs compound 3): more than 45%
- FAK experimental hit classification (FAK [13]; [22]): not a FAK hit
- inhibition at 5 µM (FAK [13]; inhibitor at 5 µM, average of two data points, read-out: FAK percentage of inhibition): 34%
Structure (SMILES): CN1CCC(CNc2ccc3nnn(-c4cccc(OC(F)(F)F)c4)c3n2)CC1 [Compound 8, (1-Methyl-piperidin-4-ylmethyl)-[3-(3-trifluoromethoxy-phenyl)-3H-[1], [2], [3]triazolo[4,5-b]pyridin-5-yl]-amine]
- PDGFR-α improvement in percentage of inhibition (PDGFR-α; [20]): c (This designation indicates that the improvement in percentage of inhibition was greater than 50%)
- KIT improvement in percentage of inhibition (KIT; [20]): c (This designation indicates that the improvement in percentage of inhibition was greater than 50%)
- IC50 (hERG): 5400 nM
